Results as given in PubChem BioAssay (NCI).
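Interpolation was linear, between the two tested concentrations surrounding the appropriate level; five concentrations were tested over 48 hours in 96-well plates. Abbreviation: GI50, concentration required for 50% inhibition of growth. TGI denotes the concentration required for complete inhibition of growth.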

Legend:
Test in all cases: NCI-60 cell line screen, 48 h
[1] = tested on: MDA-MB-435
[2] = tested on: NCI-H23 lung
[3] = tested on: U251 CNS
[4] = tested on: SK-OV-3 ovarian
[5] = tested on: OVCAR-4 ovarian
[6] = tested on: PC-3 prostate
[7] = tested on: NCI/ADR-RES ovarian
[8] = tested on: SN12C renal
[9] = tested on: SW-620 colon
[10] = tested on: HCC-2998 colon
[11] = tested on: OVCAR-3 ovarian
[12] = tested on: SK-MEL-28 melanoma
[13] = tested on: KM12 colon
[14] = tested on: UACC-62 melanoma
[15] = tested on: K-562 leukemia
[16] = tested on: HCT-15 colon
[17] = tested on: HL-60(TB) leukemia
[18] = tested on: CAKI-1 renal
[19] = tested on: DU-145 prostate
[20] = tested on: RPMI-8226 leukemia
[21] = tested on: T-47D breast
[22] = tested on: ACHN renal
[23] = tested on: NCI-H226 lung
[24] = tested on: SF-268 CNS
[25] = tested on: SR leukemia
[26] = tested on: HOP-92 NSCLC
[27] = tested on: LOX IMVI melanoma
[28] = tested on: UACC-257 melanoma
[29] = tested on: IGROV1 ovarian
[30] = tested on: SK-MEL-5 melanoma
[31] = tested on: SF-539 CNS
[32] = tested on: HCT-116 colon
[33] = tested on: A549 NSCLC
[34] = tested on: M14 melanoma
[35] = tested on: NCI-H522 lung
[36] = tested on: 786-0 renal
[37] = tested on: MDA-MB-231 breast
[38] = tested on: SNB-75 CNS
[39] = tested on: A498 renal
[40] = tested on: SK-MEL-2 melanoma
[41] = tested on: HS 578T breast
[42] = tested on: TK-10 renal
[43] = tested on: NCI-H460 lung
[44] = tested on: SF-295 CNS
[45] = tested on: HT29 colon
[46] = tested on: RXF 393 renal
[47] = tested on: OVCAR-8 ovarian
[48] = tested on: SNB-19 CNS
[49] = tested on: UO-31 renal
[50] = tested on: MALME-3M melanoma
[51] = tested on: BT-549 breast
[52] = tested on: COLO 205 colon
[53] = tested on: MOLT-4 leukemia
[54] = tested on: OVCAR-5 ovarian
[55] = tested on: CCRF-CEM leukemia
[56] = tested on: HOP-62 NSCLC
[57] = tested on: EKVX NSCLC
[58] = tested on: MCF7 breast

Question: For N#Cc1c(-c2ccccc2)cc(-c2ccccc2)n(CCCC(=O)NO)c1=O, which GI50 [1] is on record?
Answer: 0.324 µM

Question: And the TGI [1]?
Answer: 10.7 µM

Question: And the GI50 [2]?
Answer: 2.77 µM

Question: What about the TGI [2] of the same compound?
Answer: 9.94 µM

Question: And the GI50 [3]?
Answer: 1.69 µM

Question: What about the TGI [3] of the same compound?
Answer: 4.62 µM

Question: What about the GI50 [4] of the same compound?
Answer: 1.98 µM

Question: What about the TGI [4] of the same compound?
Answer: 5.23 µM

Question: And the GI50 [5]?
Answer: 1.92 µM

Question: What about the TGI [5] of the same compound?
Answer: 11.8 µM

Question: And the GI50 [6]?
Answer: 2.13 µM

Question: What about the TGI [6] of the same compound?
Answer: 14.4 µM

Question: What about the GI50 [7] of the same compound?
Answer: 0.541 µM

Question: What about the TGI [7] of the same compound?
Answer: 3.72 µM

Question: What about the GI50 [8] of the same compound?
Answer: 2.34 µM

Question: What about the TGI [8] of the same compound?
Answer: 10.3 µM

Question: And the GI50 [9]?
Answer: 1.93 µM

Question: And the TGI [9]?
Answer: 12.6 µM

Question: What about the GI50 [10] of the same compound?
Answer: 2.17 µM

Question: And the TGI [10]?
Answer: 8.66 µM

Question: What about the GI50 [11] of the same compound?
Answer: 1.61 µM

Question: And the TGI [11]?
Answer: 4.6 µM

Question: And the GI50 [12]?
Answer: 2.88 µM

Question: What about the TGI [12] of the same compound?
Answer: 12.7 µM

Question: And the GI50 [13]?
Answer: 1.1 µM

Question: What about the TGI [13] of the same compound?
Answer: 11.8 µM

Question: What about the GI50 [14] of the same compound?
Answer: 1.82 µM

Question: And the TGI [14]?
Answer: 5.63 µM

Question: What about the GI50 [15] of the same compound?
Answer: 0.729 µM

Question: What about the TGI [15] of the same compound?
Answer: 12.9 µM

Question: And the GI50 [16]?
Answer: 0.434 µM

Question: And the TGI [16]?
Answer: 10.7 µM

Question: And the GI50 [17]?
Answer: 1.81 µM

Question: What about the TGI [17] of the same compound?
Answer: 5.43 µM

Question: And the GI50 [18]?
Answer: 0.473 µM

Question: And the TGI [18]?
Answer: 2.65 µM

Question: And the GI50 [19]?
Answer: 2.66 µM

Question: What about the TGI [19] of the same compound?
Answer: 10.5 µM

Question: And the GI50 [20]?
Answer: 1.14 µM

Question: What about the TGI [20] of the same compound?
Answer: 3.8 µM

Question: What about the GI50 [21] of the same compound?
Answer: 1.83 µM

Question: What about the TGI [21] of the same compound?
Answer: 8.34 µM

Question: What about the GI50 [22] of the same compound?
Answer: 0.494 µM

Question: And the TGI [22]?
Answer: 3.59 µM

Question: And the GI50 [23]?
Answer: 2.24 µM

Question: And the TGI [23]?
Answer: 7.41 µM

Question: What about the GI50 [24] of the same compound?
Answer: 2.31 µM

Question: What about the TGI [24] of the same compound?
Answer: 6.72 µM

Question: And the GI50 [25]?
Answer: 0.361 µM

Question: And the TGI [25]?
Answer: 3.65 µM

Question: What about the GI50 [26] of the same compound?
Answer: 1.97 µM

Question: What about the TGI [26] of the same compound?
Answer: 7.53 µM

Question: And the GI50 [27]?
Answer: 1.63 µM

Question: And the TGI [27]?
Answer: 3.41 µM

Question: What about the GI50 [28] of the same compound?
Answer: 1.73 µM

Question: And the TGI [28]?
Answer: 7.38 µM

Question: And the GI50 [29]?
Answer: 1.69 µM

Question: And the TGI [29]?
Answer: 4.77 µM

Question: What about the GI50 [30] of the same compound?
Answer: 1.89 µM

Question: And the TGI [30]?
Answer: 4.74 µM

Question: What about the GI50 [31] of the same compound?
Answer: 1.68 µM

Question: What about the TGI [31] of the same compound?
Answer: 5.03 µM

Question: And the GI50 [32]?
Answer: 1.67 µM

Question: What about the TGI [32] of the same compound?
Answer: 6.7 µM

Question: What about the GI50 [33] of the same compound?
Answer: 2.2 µM

Question: And the TGI [33]?
Answer: 7.95 µM

Question: And the GI50 [34]?
Answer: 0.898 µM

Question: What about the TGI [34] of the same compound?
Answer: 10.1 µM

Question: And the GI50 [35]?
Answer: 1.33 µM

Question: What about the TGI [35] of the same compound?
Answer: 5.89 µM

Question: What about the GI50 [36] of the same compound?
Answer: 1.6 µM

Question: What about the TGI [36] of the same compound?
Answer: 5.85 µM

Question: And the GI50 [37]?
Answer: 2.9 µM

Question: What about the TGI [37] of the same compound?
Answer: 10.4 µM

Question: And the GI50 [38]?
Answer: 1.24 µM

Question: What about the TGI [38] of the same compound?
Answer: 4.85 µM

Question: What about the GI50 [39] of the same compound?
Answer: 0.788 µM

Question: And the TGI [39]?
Answer: 2.95 µM

Question: And the GI50 [40]?
Answer: 2.02 µM

Question: What about the TGI [40] of the same compound?
Answer: 10 µM

Question: What about the GI50 [41] of the same compound?
Answer: 1.81 µM

Question: What about the TGI [41] of the same compound?
Answer: 8.5 µM

Question: And the GI50 [42]?
Answer: 1 µM

Question: And the TGI [42]?
Answer: 11.1 µM

Question: What about the GI50 [43] of the same compound?
Answer: 1.72 µM

Question: And the TGI [43]?
Answer: 8.78 µM

Question: What about the GI50 [44] of the same compound?
Answer: 2.15 µM

Question: What about the TGI [44] of the same compound?
Answer: 5.02 µM

Question: What about the GI50 [45] of the same compound?
Answer: 2.58 µM

Question: What about the TGI [45] of the same compound?
Answer: 8.58 µM

Question: And the GI50 [46]?
Answer: 0.939 µM

Question: And the TGI [46]?
Answer: 2.74 µM

Question: And the GI50 [47]?
Answer: 1.14 µM

Question: And the TGI [47]?
Answer: 8.67 µM

Question: What about the GI50 [48] of the same compound?
Answer: 2.7 µM

Question: And the TGI [48]?
Answer: 13 µM

Question: What about the GI50 [49] of the same compound?
Answer: 0.392 µM

Question: What about the TGI [49] of the same compound?
Answer: 2.3 µM

Question: What about the GI50 [50] of the same compound?
Answer: 0.704 µM

Question: What about the TGI [50] of the same compound?
Answer: 11.5 µM

Question: What about the GI50 [51] of the same compound?
Answer: 2.77 µM

Question: And the TGI [51]?
Answer: 14.1 µM

Question: What about the GI50 [52] of the same compound?
Answer: 1.97 µM

Question: And the TGI [52]?
Answer: 4.97 µM

Question: What about the GI50 [53] of the same compound?
Answer: 1.22 µM

Question: What about the TGI [53] of the same compound?
Answer: 5.98 µM

Question: And the GI50 [54]?
Answer: 2.3 µM

Question: And the TGI [54]?
Answer: 8.43 µM

Question: And the GI50 [55]?
Answer: 0.847 µM

Question: What about the TGI [55] of the same compound?
Answer: 7.15 µM

Question: And the GI50 [56]?
Answer: 2 µM

Question: What about the TGI [56] of the same compound?
Answer: 6.98 µM

Question: What about the GI50 [57] of the same compound?
Answer: 1.8 µM

Question: And the TGI [57]?
Answer: 7.81 µM

Question: And the GI50 [58]?
Answer: 1.7 µM

Question: And the TGI [58]?
Answer: 10.6 µM
